Laboratory results as given in patent publication US20260207614A1, “IRAK4 DEGRADERS AND USES THEREOF” (Kymera Therapeutics, Inc., priority 2022, published 2026).
Like-named read-outs stand apart in the source and are kept apart here.

Experiments:
[1] = Phase 1 MAD plasma PK in healthy volunteers; assay type: in vivo, human; settings: for Ctrough / AUC: Day 14, geometric mean (% CV); for AUC: read-out: AUC24; for Tmax: Day 14, median (range); for Cmax: Day 14 steady state, geometric mean (% CV)
Experimental: The selection of Compound A doses will be guided by the safety, tolerability, and PK data in humans from the SAD portion of the study. […] Increasing dose levels in subsequent MAD cohorts will be identified based on the safety and PK observed in the previous SAD and MAD cohorts. Dose escalation between each MAD cohort will not exceed 100%.
However, the dosing interval and the duration of dosing may change following review of the safety, PK, and PD data from Part A.
A MAD5 cohort was added including five twice-weekly doses of 200 mg.
Geometric Mean (% CV) reported for all parameters, except tmax where median (range) are presented. Accumulation Ratio represents fold change in exposure from Day 1 to Day 14.

[2] = tested on: TLR agonist (lipopolysaccharide and R848) and IL-1β-induced proinflammatory cytokine production; test: In vitro cytokine release assays in PBMCs; assay type: cell-based; settings: LPS
[3] = Solubility; assay type: physicochemical
Text: Compound A can be classified tentatively as a BCS II compound.

[4] = biological target: T1, IRAK4 (Rattus norvegicus, UniProt A0A8I6G1H3); test: In vitro IRAK4 degradation, rat splenocytes; assay type: cell-based; settings: read-out: DC50 (IRAK4 degradation)
T1 construct: endogenous in cells; host or cells: rat splenocytes

[5] = tested on: imiquimod psoriasis model (TLR 7/8-dependent); test: Imiquimod psoriasis model; assay type: in vivo, murine
Text: Overall, efficacy was associated with achieving at least 80% or more IRAK4 knockdown in associated tissues in the model systems.

[6] = Phase 1 Part C plasma PK in HS/AD patients; assay type: in vivo; settings: human
Text: Part C: Part C is an open-label, multiple dose study in a single cohort of up to 20 patients with AD or HS (at least 10 patients with AD) and will commence after the completion of Part B. Part C will be conducted on both an inpatient and outpatient basis and patients will continue to be followed for safety through Day 28. The dose regimen and the requirement for patient confinement to the clinical units will be selected by the SRC from review of the safety. PK, and PD data after completion of Part B.

[7] = clinical; settings: human, in vivo
Text: The safety margin decreases as the dose increases.

T1 sequence (A0A8I6G1H3 1-461): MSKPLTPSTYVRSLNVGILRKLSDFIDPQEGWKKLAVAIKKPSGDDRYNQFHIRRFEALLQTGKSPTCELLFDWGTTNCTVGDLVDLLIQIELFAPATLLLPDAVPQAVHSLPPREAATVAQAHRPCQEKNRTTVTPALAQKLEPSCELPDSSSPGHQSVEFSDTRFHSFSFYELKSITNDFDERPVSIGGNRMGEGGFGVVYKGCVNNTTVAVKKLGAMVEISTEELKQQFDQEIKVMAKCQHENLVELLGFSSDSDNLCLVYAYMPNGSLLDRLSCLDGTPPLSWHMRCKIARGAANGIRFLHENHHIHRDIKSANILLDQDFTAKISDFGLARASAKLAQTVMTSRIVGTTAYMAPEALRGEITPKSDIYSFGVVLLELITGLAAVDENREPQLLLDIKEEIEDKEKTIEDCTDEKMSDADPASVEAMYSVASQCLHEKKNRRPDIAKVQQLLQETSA

Q: Which Ctrough ([1]; 25 mg QD) does the source give for `Cn1c(=O)n([C@@H]2CCC(=O)NC2=O)c2cccc(C#CCOC3CCN(C[C@H]4CC[C@H](n5cc(NC(=O)c6cnn7ccc(N8C[C@H]9C[C@@H]8CO9)nc67)c(C(F)F)n5)CC4)CC3)c21` [Compound A, 5-((1R,4R)-2-oxa-5-azabicyclo[2.2.1]heptan-5-yl)-N-(3-(difluoromethyl)-1-((1r,4R)-4-((4-((3-(1-(2,6-dioxopiperidin-3-yl)-3-methyl-2-oxo-2,3-dihydro-1H-benzo[d]imidazol-4-yl)prop-2-yn-1-yl)oxy)piperidin-1-yl)methyl)cyclohexyl)-1H-pyrazol-4-yl)pyrazolo[1,5-a]pyrimidine-3-carboxamide] here?
A: 5.03 (30.3) ng/mL

Q: And the Ctrough ([1]; 50 mg QD)?
A: 7.28 (35.1) ng/mL

Q: And the Ctrough ([1]; 100 mg QD)?
A: 9.81 (30.1) ng/mL

Q: What about the Ctrough ([1]; 200 mg QD) of the same molecule?
A: 18.8 (32.6) ng/mL

Q: And the “day of dosing by which steady-state plasma levels reached” value ([1]; MAD, once daily)?
A: ≤ 7 days

Q: What about the AUC ([1]; human, plasma, oral, 25 mg QD) of the same molecule?
A: 153 ng·h/mL

Q: And the Tmax ([1]; human, plasma, oral, 25 mg QD)?
A: 8 h

Q: And the Cmax ([1]; human, plasma, oral, 25 mg QD)?
A: 8.2 ng/mL

Q: And the AUC ([1]; human, plasma, oral, 50 mg QD)?
A: 224 ng·h/mL

Q: And the Tmax ([1]; human, plasma, oral, 50 mg QD)?
A: 8 h

Q: And the Cmax ([1]; human, plasma, oral, 50 mg QD)?
A: 12 ng/mL

Q: And the AUC ([1]; human, plasma, oral, 100 mg QD)?
A: 314 ng·h/mL

Q: And the Tmax ([1]; human, plasma, oral, 100 mg QD)?
A: 8 h

Q: And the Cmax ([1]; human, plasma, oral, 100 mg QD)?
A: 16.1 ng/mL

Q: And the AUC ([1]; human, plasma, oral, 200 mg QD)?
A: 498 ng·h/mL

Q: What about the Tmax ([1]; human, plasma, oral, 200 mg QD) of the same molecule?
A: 8 h

Q: And the Cmax ([1]; human, plasma, oral, 200 mg QD)?
A: 25.2 ng/mL

Q: What about the half-life ([1]; human, plasma, oral, healthy volunteers, read-out: half-life, range observed in MAD) of the same molecule?
A: 34 to 59 h

Q: And the “IC50 values, inhibition of proinflammatory cytokine production (IL-6, TNF-α, GM-CSF, IL-8)” value [2]?
A: low nM range

Q: What about the solubility [3] of the same molecule?
A: low

Q: And the solubility ([3]; FaSSIF, pH 6.5, fassif, read-out: solubility in bio-relevant fluid (FaSSIF))?
A: < 12000 µg/mL

Q: And the solubility ([3]; aqueous media, aqueous buffer, across the physiological pH range, read-out: aqueous solubility)?
A: ≤ 3000 µg/mL

Q: What about the BCS classification ([3]; tentative) of the same molecule?
A: BCS II

Q: What about the DC50 [4] of the same molecule?
A: < 10 nM

Q: And the “degradation of IRAK4 in the spleen and skin” value ([5]; mouse, in vivo)?
A: dose-dependent degradation

Q: What about the skin thickness ([5]; mouse, in vivo) of the same molecule?
A: reduction in skin thickness

Q: And the “IL-1β in the skin” value ([5]; p<0.0001)?
A: significant reduction

Q: And the “IL-6 in the skin” value ([5]; p<0.05, 300 mg/kg only)?
A: significant reduction

Q: What about the “exposure in fasted state as share of exposure in fed state” value ([6]; in vivo) of the same molecule?
A: about 133%

Q: What about the “exposure in fed state as share of exposure in fasted state” value ([6]; in vivo) of the same molecule?
A: about 75%

Q: And the half-life ([6]; plasma, oral, Part C, 75 mg QD fed, HS/AD patients)?
A: 44 h

Q: And the half-life [7]?
A: 25 to 40 h

Q: And the “inter-subject variability in exposure” value [7]?
A: low to moderate

Q: What about the AUC ([7]; po, 25 mg) of the same molecule?
A: 112 ng·h/mL

Q: What about the Cmax ([7]; po, 25 mg) of the same molecule?
A: 3.49 ng/mL

Q: What about the Tmax ([7]; po, 25 mg) of the same molecule?
A: 8 h

Q: And the half-life ([7]; po, 25 mg)?
A: 25.2 h

Q: And the AUC ([7]; po, 75 mg)?
A: 288 ng·h/mL

Q: What about the Cmax ([7]; po, 75 mg) of the same molecule?
A: 9.08 ng/mL

Q: What about the Tmax ([7]; po, 75 mg) of the same molecule?
A: 7 h

Q: And the half-life ([7]; po, 75 mg)?
A: 28.7 h

Q: And the AUC ([7]; po, 150 mg)?
A: 483 ng·h/mL

Q: And the Cmax ([7]; po, 150 mg)?
A: 12.7 ng/mL

Q: What about the Tmax ([7]; po, 150 mg) of the same molecule?
A: 9 h

Q: What about the half-life ([7]; po, 150 mg) of the same molecule?
A: 31.6 h

Q: And the AUC ([7]; po, 300 mg)?
A: 848 ng·h/mL

Q: And the Cmax ([7]; po, 300 mg)?
A: 17.4 ng/mL

Q: What about the Tmax ([7]; po, 300 mg) of the same molecule?
A: 8 h

Q: And the half-life ([7]; po, 300 mg)?
A: 26.6 h

Q: And the AUC ([7]; po, 600 mg)?
A: 1520 ng·h/mL

Q: And the Cmax ([7]; po, 600 mg)?
A: 24.2 ng/mL

Q: What about the Tmax ([7]; po, 600 mg) of the same molecule?
A: 12 h

Q: What about the half-life ([7]; po, 600 mg) of the same molecule?
A: 30.1 h

Q: And the AUC ([7]; po, 1000 mg)?
A: 1950 ng·h/mL

Q: What about the Cmax ([7]; po, 1000 mg) of the same molecule?
A: 27.8 ng/mL

Q: And the Tmax ([7]; po, 1000 mg)?
A: 20 h

Q: And the half-life ([7]; po, 1000 mg)?
A: 40.2 h

Q: And the AUC ([7]; po, 1600 mg)?
A: 1920 ng·h/mL

Q: And the Cmax ([7]; po, 1600 mg)?
A: 27.3 ng/mL

Q: What about the Tmax ([7]; po, 1600 mg) of the same molecule?
A: 24 h

Q: What about the half-life ([7]; po, 1600 mg) of the same molecule?
A: 36.4 h
